In patent US9695155B2, “Herbicidal substituted pyrimidinyloxy benzene compounds” (E. I. DU PONT DE NEMOURS AND COMPANY, priority 2013, dated 2017):

Assays:
sedge, umbrella = experiment: Test B flooded paddy test; type: in vivo, Cyperus difformis; details: Flood, 250 g ai/ha, 0 to 100 scale where 0 is no effect and 100 is complete control
Procedure, shortened: (§1)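 Visual ratings on a 0 to 100 scale, where 100 means complete control, compared treated plants with controls after 13 to 15 days in a greenhouse. Treatment went into paddy water 3 cm deep over the soil, applied to plants at the 2-leaf stage.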

barnyardgrass [1] = experiment: Test B flooded paddy test; type: in vivo, Echinochloa crus-galli; details: Flood, 250 g ai/ha, 0 to 100 scale where 0 is no effect and 100 is complete control
Procedure, shortened: as §1

wheat, winter = experiment: Test C postemergence; type: in vivo, Triticum aestivum
Procedure, shortened: (§2)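 Greenhouse herbicide screen. Pre: seeded loam/sand, sprayed at planting. Post: 1–4 leaf plants (2–18 cm) in peat-based mix. Formulation: solvent mixture + surfactant, non-phytotoxic. Readout: visual % control vs untreated, 13–15 d; dash = not tested.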

corn [2] = experiment: Test C postemergence; type: in vivo, Zea mays
Procedure, shortened: as §2

large (Lg) crabgrass [3] = experiment: Test C postemergence; type: in vivo, Digitaria sanguinalis
Procedure, shortened: as §2

giant foxtail = experiment: Test C postemergence; type: in vivo, Setaria faberii
Procedure, shortened: as §2

lambsquarters = experiment: Test C postemergence; type: in vivo, Chenopodium album
Procedure, shortened: as §2

barnyardgrass [4] = experiment: Test C postemergence; type: in vivo, Echinochloa crus-galli
Description: (§3) Seeds of plant species selected from blackgrass (Alopecurus myosuroides), Italian ryegrass (Lolium multiflorum), wheat, winter (winter wheat, Triticum aestivum), galium (catchweed bedstraw, Galium aparine), corn (Zea mays), large (Lg) crabgrass (Digitaria sanguinalis), giant foxtail (Setaria faberii), johnsongrass (Sorghum halepense), lambsquarters (Chenopodium album), morningglory (Ipomoea coccinea), yellow nutsedge (Cyperus esculentus), pigweed (Amaranthus retroflexus), ragweed (common ragweed, Ambrosia elatior), soybean (Glycine max), barnyardgrass (Echinochloa crus-galli), oilseed rape (Brassica napus), waterhemp (common waterhemp, Amaranthus rudis), kochia (Kochia scoparia), wild oat (Avena fatua), surinam grass (Brachiaria decumbens), foxtail, green (green foxtail, Setaria viridis), goosegrass (Eleusine indica), bromegrass, downy (downy bromegrass, Bromus tectorum), nightshade (eastern black nightshade, Solanum ptycanthum), cocklebur (common cocklebur, Xanthium strumarium), cupgrass, woolly (woolly cupgrass, Eriochloa villosa), bermudagrass (Cynodon dactylon), sunflower, (common oilseed sunflower, Helianthus annuus), Russian thistle (Salsola kali), and velvetleaf (Abutilon theophrasti) were planted into a blend of loam soil and sand and treated preemergence with test chemicals formulated in a non-phytotoxic solvent mixture which included a surfactant.
(§4) At the same time, plants selected from these crop and weed species and also barley, winter (winter barley, Hordeum vulgare), windgrass (Apera spica-venti), chickweed (common chickweed, Stellaria media), deadnettle (henbit deadnettle, Lamium amplexicaule), and canarygrass (littleseed canarygrass, Phalaris minor) were planted in pots containing Redi-Earth® planting medium (Scotts Company, 14111 Scottslawn Road, Marysville, Ohio 43041) comprising spaghnum peat moss, vermiculite, wetting agent and starter nutrients and treated with postemergence applications of test chemicals formulated in the same manner. Plants ranged in height from 2 to 18 cm (1- to 4-leaf stage) for postemergence treatments. Treated plants and controls were maintained in a greenhouse for 13 to 15 days, after which time all species were compared to controls and visually evaluated. Plant response ratings, summarized in Table C, are based on a scale of 0 to 100 where 0 is no effect and 100 is complete control. A dash (-) response means no test result.

waterhemp = experiment: Test C postemergence; type: in vivo, Amaranthus rudis
Description: as §3, §4

chickweed = experiment: Test C postemergence; type: in vivo, Stellaria media
Procedure, shortened: as §2

wheat = experiment: Test A preemergence; type: in vivo, Triticum aestivum; details: Triticum aestivum, pre-emergence, 240 h, read-out: Wheat plant response rating
Procedure, shortened: (§5)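 Scoring: eye-based comparison with untreated controls, 0 for no effect through 100 for complete control, at about day 10. Treatments: directed soil spray preemergence; foliar spray postemergence on 2–10 cm plants at the one- to two-leaf stage. Medium: loam soil with sand.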

corn [5] = experiment: Test A preemergence; type: in vivo, Zea mays; details: Zea mays, pre-emergence, 240 h, read-out: Corn plant response rating
Procedure, shortened: as §5

large (Lg) crabgrass [6] = experiment: Test A postemergence; type: in vivo, Digitaria sanguinalis; details: Digitaria sanguinalis, post-emergence, 240 h
Procedure, shortened: as §5

large (Lg) crabgrass [7] = experiment: Test C preemergence; type: in vivo, Digitaria sanguinalis; details: Digitaria sanguinalis, pre-emergence
Procedure, shortened: as §2

pigweed = experiment: Test C preemergence; type: in vivo, Amaranthus retroflexus; details: Amaranthus retroflexus, pre-emergence
Procedure, shortened: as §2

[8] = 31 g ai/ha, postemergence, visual rating, scale 0 to 100 (0 no effect, 100 complete control), 13 to 15 days
[9] = 125 g ai/ha, postemergence, visual rating, scale 0 to 100 (0 no effect, 100 complete control)
[10] = Postemergence, 62 g ai/ha, scale 0 to 100 (0 no effect, 100 complete control), 13 to 15 days
[11] = 125 g ai/ha, 0 to 100 scale where 0 is no effect and 100 is complete control
[12] = 500 g ai/ha, 0 to 100 scale, 0 no effect, 100 complete control, approx. 10 days

N#Cc1cccc(Oc2ncc(Cl)cn2)c1-n1cc(-n2ccc(C(F)(F)F)n2)cn1 [Compound 284]
25: Plant response rating (0 to 100), Foxtail, Giant (giant foxtail; 250 g ai/ha, postemergence)
20: Plant response rating, Corn (corn [2]; [9]) | Plant response rating (0 to 100), Corn (corn [2]; 250 g ai/ha, postemergence) | Plant response rating, Foxtail, Giant (giant foxtail; [9])
98: Plant response rating, Lambsquarters (lambsquarters; [9]) | Plant response rating (0 to 100), Lambsquarters (lambsquarters; 250 g ai/ha, postemergence) | Plant response rating, Waterhemp (waterhemp; [9])
0: Plant response rating, Barnyardgrass (barnyardgrass [1]) | Wheat plant response rating (wheat, winter; [8])
85: Plant response rating, Sedge, Umbrella (sedge, umbrella) | Plant response rating, Lambsquarters (lambsquarters; [10]) | Waterhemp plant response rating (waterhemp; [8]) | Plant response rating, Waterhemp (waterhemp; [10])
70: Lambsquarters plant response rating (lambsquarters; [8])
10: Plant response rating, Corn (corn [2]; [10]) | Plant response rating, Crabgrass, Large (large (Lg) crabgrass [3]; [9]) | Plant response rating (0 to 100), Crabgrass, Large (large (Lg) crabgrass [3]; 250 g ai/ha, postemergence) | Foxtail, Giant plant response rating (giant foxtail; [8]) | Plant response rating, Foxtail, Giant (giant foxtail; [10]) | Barnyardgrass plant response rating (barnyardgrass [4]; [8]) | Plant response rating, Barnyardgrass (barnyardgrass [4]; [10])
100: Plant response rating (0 to 100), Waterhemp (waterhemp; 250 g ai/ha, postemergence) | Plant response rating, Chickweed (chickweed; [9]) | Plant response rating (0 to 100), Chickweed (chickweed; 250 g ai/ha, postemergence) | Plant response rating, Chickweed (chickweed; [10])
5: Plant response rating, Wheat (wheat, winter; [9]) | Plant response rating (0 to 100), Wheat (wheat, winter; 250 g ai/ha, postemergence) | Plant response rating, Wheat (wheat, winter; [10]) | Corn plant response rating (corn [2]; [8]) | Crabgrass, Large plant response rating (large (Lg) crabgrass [3]; [8]) | Plant response rating, Crabgrass, Large (large (Lg) crabgrass [3]; [10])
65: Chickweed plant response rating (chickweed; [8])
15: Plant response rating, Barnyardgrass (barnyardgrass [4]; [9]) | Plant response rating (0 to 100), Barnyardgrass (barnyardgrass [4]; 250 g ai/ha, postemergence)

Clc1cnc(Oc2ccccc2-n2cc(Br)cn2)nc1 [Compound 7, 2-[2-(4-bromo-1H-pyrazol-1-yl)phenoxy]-5-chloropyrimidine]
10%: plant injury at 125 g/ha (wheat, winter; Triticum aestivum, post-emergence, 125 g ai/ha, postemergence, read-out: Plant response rating (0 to 100), Wheat) | pest or weed control at 125 g/ha (large (Lg) crabgrass [3]; Digitaria sanguinalis, post-emergence, 125 g ai/ha, postemergence, read-out: Plant response rating (0 to 100), Crabgrass, Large) | pest or weed control at 125 g/ha (giant foxtail; Setaria faberi, post-emergence, 125 g ai/ha, postemergence, read-out: Plant response rating (0 to 100), Foxtail, Giant) | pest or weed control at 250 g/ha (giant foxtail; Setaria faberi, post-emergence, 250 g ai/ha, postemergence, read-out: Plant response rating (0 to 100), Foxtail, Giant)
0%: plant injury at 125 g/ha (wheat; [11]) | plant injury at 125 g/ha (corn [5]; [11]) | pest or weed control at 31 g/ha (giant foxtail; Setaria faberi, post-emergence, Postemergence, 31 g ai/ha, scale 0 to 100 (0 no effect, 100 complete control), 13 to 15 days, read-out: Plant response rating, Foxtail, Giant)
30%: plant injury at 500 g/ha (corn [5]; [12]) | pest or weed control at 250 g/ha (barnyardgrass [1]; Echinochloa crus-galli, read-out: Plant response rating, Barnyardgrass)
60%: plant injury at 125 g/ha (corn [2]; Zea mays, post-emergence, 125 g ai/ha, postemergence, read-out: Plant response rating (0 to 100), Corn) | pest or weed control at 31 g/ha (lambsquarters; Chenopodium album, post-emergence, Postemergence, 31 g ai/ha, scale 0 to 100 (0 no effect, 100 complete control), 13 to 15 days, read-out: Plant response rating, Lambsquarters)
75%: pest or weed control at 250 g/ha (sedge, umbrella; Cyperus difformis, read-out: Plant response rating, Sedge, Umbrella) | plant injury at 250 g/ha (corn [2]; Zea mays, post-emergence, 250 g ai/ha, postemergence, read-out: Plant response rating (0 to 100), Corn)
98%: pest or weed control at 62 g/ha (large (Lg) crabgrass [7]; 62 g ai/ha, preemergence, scale 0 (no effect) to 100 (complete control), read-out: Crabgrass, Large plant response rating) | pest or weed control at 125 g/ha (lambsquarters; Chenopodium album, post-emergence, 125 g ai/ha, postemergence, read-out: Plant response rating (0 to 100), Lambsquarters) | pest or weed control at 250 g/ha (lambsquarters; Chenopodium album, post-emergence, 250 g ai/ha, postemergence, read-out: Plant response rating (0 to 100), Lambsquarters) | pest or weed control at 62 g/ha (lambsquarters; Chenopodium album, post-emergence, Postemergence, 62 g ai/ha, scale 0 to 100 (0 no effect, 100 complete control), read-out: Plant response rating, Lambsquarters) | pest or weed control at 250 g/ha (chickweed; Stellaria media, post-emergence, 250 g ai/ha, postemergence, read-out: Plant response rating (0 to 100), Chickweed)
20%: plant injury at 500 g/ha (wheat; [12]) | pest or weed control at 250 g/ha (large (Lg) crabgrass [3]; Digitaria sanguinalis, post-emergence, 250 g ai/ha, postemergence, read-out: Plant response rating (0 to 100), Crabgrass, Large)
100%: pest or weed control at 500 g/ha (large (Lg) crabgrass [6]; 500 g ai/ha, 0 to 100 scale, 0 no effect, 100 complete control, read-out: Plant response rating Crabgrass, Large) | pest or weed control at 125 g/ha (large (Lg) crabgrass [7]; 125 g ai/ha, preemergence, scale 0 (no effect) to 100 (complete control), read-out: Crabgrass, Large plant response rating) | pest or weed control at 250 g/ha (large (Lg) crabgrass [7]; 250 g ai/ha, preemergence, scale 0 (no effect) to 100 (complete control), read-out: Crabgrass, Large plant response rating) | pest or weed control at 62 g/ha (pigweed; 62 g ai/ha, preemergence, scale 0 (no effect) to 100 (complete control), read-out: Pigweed plant response rating) | pest or weed control at 125 g/ha (pigweed; 125 g ai/ha, preemergence, scale 0 (no effect) to 100 (complete control), read-out: Pigweed plant response rating) | pest or weed control at 250 g/ha (pigweed; 250 g ai/ha, preemergence, scale 0 (no effect) to 100 (complete control), read-out: Pigweed plant response rating) | pest or weed control at 31 g/ha (pigweed; Preemergence, 31 g ai/ha, scale 0 to 100, 0 no effect, 100 complete control, read-out: Plant response rating, Pigweed)
80%: pest or weed control at 125 g/ha (large (Lg) crabgrass [6]; 125 g ai/ha, 0 to 100 scale where 0 is no effect and 100 is complete control, read-out: Plant response rating, Crabgrass, Large) | pest or weed control at 31 g/ha (large (Lg) crabgrass [7]; Preemergence, 31 g ai/ha, scale 0 to 100, 0 no effect, 100 complete control, read-out: Plant response rating, Crabgrass, Large) | pest or weed control at 31 g/ha (chickweed; Stellaria media, post-emergence, Postemergence, 31 g ai/ha, scale 0 to 100 (0 no effect, 100 complete control), 13 to 15 days, read-out: Plant response rating, Chickweed)
25%: Corn plant response rating (crop injury, 0 = no effect, 100 = complete kill) at 62 g/ha (corn [2]; Zea mays, post-emergence, Postemergence, 62 g ai/ha, scale 0 to 100 (0 no effect, 100 complete control))
90%: pest or weed control at 125 g/ha (chickweed; Stellaria media, post-emergence, 125 g ai/ha, postemergence, read-out: Plant response rating (0 to 100), Chickweed)
5%: plant injury at 31 g/ha (wheat, winter; Triticum aestivum, post-emergence, Postemergence, 31 g ai/ha, scale 0 to 100 (0 no effect, 100 complete control), 13 to 15 days, read-out: Plant response rating, Wheat) | plant injury at 62 g/ha (wheat, winter; Triticum aestivum, post-emergence, Postemergence, 62 g ai/ha, scale 0 to 100 (0 no effect, 100 complete control), read-out: Plant response rating, Wheat) | pest or weed control at 31 g/ha (large (Lg) crabgrass [3]; Digitaria sanguinalis, post-emergence, Postemergence, 31 g ai/ha, scale 0 to 100 (0 no effect, 100 complete control), 13 to 15 days, read-out: Plant response rating, Crabgrass, Large) | pest or weed control at 62 g/ha (large (Lg) crabgrass [3]; Digitaria sanguinalis, post-emergence, Postemergence, 62 g ai/ha, scale 0 to 100 (0 no effect, 100 complete control), read-out: Plant response rating, Crabgrass, Large) | pest or weed control at 62 g/ha (giant foxtail; Setaria faberi, post-emergence, Postemergence, 62 g ai/ha, scale 0 to 100 (0 no effect, 100 complete control), read-out: Plant response rating, Foxtail, Giant)
15%: plant injury at 250 g/ha (wheat, winter; Triticum aestivum, post-emergence, 250 g ai/ha, postemergence, read-out: Plant response rating (0 to 100), Wheat)
